Measured values published in BindingDB's records for doi:10.1021/jm00394a010 (University of Minnesota, 1987).
Where a SMILES comes first, the peptide text is derived from it. Side-chain parts run from the residue outwards. The star is where a group is joined. X1 = CN1CC[C@]23c4c5ccc(O)c4O[C@H]2[C@@H](N*)CC[C@@]3(O)C1C5

experiment: Binding affinity of Opioid receptor delta 1 by the displacement of delta-selective [3H]DSLET from brain membrane preparations.

Row | Molecule | Ki
1 | CC(C)C[C@H](NC(=O)[C@H](Cc1ccccc1)NC(=O)CNC(=O)[C@H](CCC(=O)NCC(=O)NCC(N)=O)NC(=O)[C@@H](N)Cc1ccc(O)cc1)C(=O)O (H-YE([Gly-Gly-NH2])GFL-OH) | 88 nM
2 | CC(C)C[C@H](NC(=O)[C@H](Cc1ccccc1)NC(=O)CNC(=O)[C@H](CCC(=O)NCC(=O)NCC(=O)N[C@H]1CC[C@@]2(O)C3Cc4ccc(O)c5c4[C@@]2(CCN3C)[C@H]1O5)NC(=O)[C@@H](N)Cc1ccc(O)cc1)C(=O)O [oxymorphamine- and enkephalin-containing ligand 2] (H-YE([Gly-Gly-X1])GFL-OH) | 51 nM
3 | CC(=O)N[C@H]1CC[C@@]2(O)C3Cc4ccc(O)c5c4[C@@]2(CCN3C)[C@H]1O5 [N-[(1S,13R,14S,17S)-10,17-dihydroxy-4-methyl-12-oxa-4-azapentacyclo[9.6.1.0^{1,13}.0^{5,17}.0^{7,18}]octadeca-7(18),8,10-trien-14-yl]acetamide] | 163 nM
4 | H-YQGFL-OH | 47 nM
5 | CC(=O)NCC(=O)NCC(=O)N[C@H]1CC[C@@]2(O)C3Cc4ccc(O)c5c4[C@@]2(CCN3C)[C@H]1O5 [1N-[10,17-dihydroxy-4-methyl-(13R,17S)-12-oxa-4-azapentacyclo[9.6.1.01,13.05,17.07,18]octadeca-7(18),8,10-trien-14-ylcarbamoylmethyl]-2-methylcarboxamidoacetamide] | 181 nM
6 | CC(C)C[C@H](NC(=O)[C@H](Cc1ccccc1)NC(=O)CNC(=O)[C@H](CCC(=O)N[C@H]1CC[C@@]2(O)C3Cc4ccc(O)c5c4[C@@]2(CCN3C)[C@H]1O5)NC(=O)[C@@H](N)Cc1ccc(O)cc1)C(=O)O [oxymorphamine- and enkephalin-containing ligand 1] (H-YE(X1)GFL-OH) | 26 nM
